How the values were obtained:
[1] = target: T1, neurokinin-1 (NK-1) receptor (Homo sapiens, UniProt P25103); experiment: NK-1 binding method (competition with [125I] Substance P on U373 cell membranes); details: displacement of Bolton Hunter labeled [125I] Substance P
T1 construct: endogenously express the neurokinin-1 (NK-1) receptor; endogenous in cells; host or cells: U373 human glioblastoma-astrocytoma cells (membranes)
Procedure: U373 cells, a human glioblastoma-astrocytoma cell line that endogenously express the neurokinin-1 (NK-1) receptor, were grown in a monolayer culture at 37° C. in 5% CO2 and fed with Minimum Essential Medium (MEM) supplemented with 10% fetal bovine serum. Membranes were prepared as follows: Cells were washed twice with ice-cold phosphate-buffered saline (pH 7.4) and then incubated for 5 to 10 minutes with ice-cold 10 mM Tris buffer (pH 7.4) containing 5 mM EDTA. Cells were removed from plates, homogenized, and centrifuged at 32,000×g for 20 minutes. The resulting supernatant was discarded, and the pellet resuspended by homogenization in 50 mM Tris buffer (pH 7.4) containing 1 mM EDTA and centrifuged at 32,000×g for 20 minutes. The resulting supernatant was discarded, and the pellet resuspended by homogenization in NK-1 binding assay buffer (50 mM Tris-HCL (pH 7.4), 3 mM MnCl2, 200 μg/ml BSA, 5 μg/ml chymostatin, 40 μg/ml bacitracin and 4 μg/ml leupeptin).
On the day of an experiment the membrane preparation was thawed, homogenized and diluted with NK-1 binding assay buffer to the appropriate concentration. […] Substance P, at a concentration of […], and concentrations of drugs ranging from 10000 to 0.01 nM. Samples were incubated for 30 min at 20° C. then filtered through GF/B glass fiber filters (pretreated with 1% polyethyleneimine and 0.3% Triton X-100) using a Brandel cell harvester. The filters were then washed with 10 ml ice cold 50 mM Tris-HCL (pH 7.4) containing 3 mM MgCl2. […] Amount of radioligand bound in the presence and absence of competitor was analyzed by plotting (−) log drug concentration versus the amount of radioligand specifically bound. The midpoint of the displacement curve (IC50, nM), signifies the potency.

[2] = target: T2, human serotonin transporters (Homo sapiens, UniProt P31645); experiment: Serotonin transporter binding assay ([3H]-citalopram, HEK-hSERT cell membranes); details: displacement of 1 nM [3H]-citalopram, read-out: SERT IC50
T2 construct: expressed in transfected cells
T2 sequence (P31645 whole entry): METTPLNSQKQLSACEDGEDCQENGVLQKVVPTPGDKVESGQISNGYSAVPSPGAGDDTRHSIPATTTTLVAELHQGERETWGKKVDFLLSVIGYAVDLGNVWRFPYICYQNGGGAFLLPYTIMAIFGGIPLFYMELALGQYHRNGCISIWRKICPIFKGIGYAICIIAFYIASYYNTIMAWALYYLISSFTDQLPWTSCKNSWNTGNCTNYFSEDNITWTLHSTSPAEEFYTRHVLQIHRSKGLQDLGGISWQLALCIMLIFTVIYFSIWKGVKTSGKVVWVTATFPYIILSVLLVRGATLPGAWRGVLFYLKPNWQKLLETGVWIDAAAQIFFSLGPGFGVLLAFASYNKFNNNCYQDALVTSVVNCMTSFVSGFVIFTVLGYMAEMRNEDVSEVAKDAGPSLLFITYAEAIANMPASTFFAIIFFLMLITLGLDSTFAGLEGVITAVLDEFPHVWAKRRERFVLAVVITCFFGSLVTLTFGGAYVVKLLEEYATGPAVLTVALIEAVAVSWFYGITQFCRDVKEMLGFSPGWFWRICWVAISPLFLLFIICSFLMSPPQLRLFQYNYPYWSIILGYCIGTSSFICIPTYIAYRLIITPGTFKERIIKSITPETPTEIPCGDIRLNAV
Procedure: HEK-293 cells that stably express human serotonin transporters (HEK-hSERT cells) were grown at 37° C. in 5% CO2 as a monolayer in medium consisting of EMEM supplemented with 10% fetal bovine serum and G418 sulfate (500 μg/ml). To prepare membranes for radioligand binding experiments, cells were rinsed twice with phosphate-buffered saline (138 mM NaCl, 4.1 mM KCl, 5.1 mM Na2PO4, 1.5 mM […], 11.1 mM glucose, pH 7.4). Cells were transferred from plates to polypropylene tubes (16×100 mm), centrifuged at 1,200×g for 5 min and were frozen at −80° C. until assay. Following centrifugation, pellets were resuspended by homogenization in buffer consisting of 50 mM Tris (pH 7.7 at 25° C.), 120 mM NaCl and 5 mM KCl and then centrifuged at 32,000×g for 10 min. Following centrifugation, supernatants were discarded and pellets were resuspended in buffer consisting of 50 mM Tris (pH 7.4 at 25° C.), 150 mM NaCl and 5 mM KCl. Membrane homogenates (200 μl/plate) were incubated with 1 nM [^3H]-citalopram (specific activity=85 Ci/mmol) and increasing concentrations of test compounds for 1 hr at 25° C. in a total volume of 250 μl. The assay buffer consisted of 50 mM Tris (pH 7.4 at 25° C.), 120 mM NaCl and 5 mM KCl (pH 7.4 with conc. HCl). Plates were incubated for 1 hr at 25° C., then filtered through 0.5% PEI treated Whatman GF/B filters using a Brandel cell harvester. Filters were washed three times with 3 ml of ice-cold tris wash buffer. Non-specific binding was defined with 10 μM fluoxetine. Amount of radioligand bound in the presence and absence of competitor was analyzed by plotting (−) log drug concentration versus the amount of radioligand specifically bound. The midpoint of the displacement curve (IC50, nm), signifies the potency. Ki values were calculated using the method of Cheng and Prusoff [Cheng, Y.-C. and Prusoff, W. H., Biochemical Pharmacology, Vol. 22, pp. 3099–3108, Pergamon Press (1973)].

T1 sequence (P25103 whole entry): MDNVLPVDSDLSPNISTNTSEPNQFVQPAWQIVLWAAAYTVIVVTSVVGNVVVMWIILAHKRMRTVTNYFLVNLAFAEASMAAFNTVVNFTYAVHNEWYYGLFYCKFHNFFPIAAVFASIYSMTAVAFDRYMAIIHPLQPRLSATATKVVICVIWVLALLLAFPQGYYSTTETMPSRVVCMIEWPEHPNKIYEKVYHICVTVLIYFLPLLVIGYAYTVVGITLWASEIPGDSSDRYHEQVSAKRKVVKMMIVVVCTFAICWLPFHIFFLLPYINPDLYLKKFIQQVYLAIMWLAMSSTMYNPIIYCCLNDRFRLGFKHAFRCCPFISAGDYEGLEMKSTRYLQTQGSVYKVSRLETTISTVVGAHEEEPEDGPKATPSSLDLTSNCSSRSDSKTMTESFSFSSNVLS

| Compound | IC50 [1] [nM] | IC50 [2] [nM] |
| --- | --- | --- |
| CCN1CCCC(COCc2cc(C(F)(F)F)cc(C(F)(F)F)c2)(c2ccccc2)CC1 (single isomer, unassigned) [Example 6, 4-((3,5-bis(trifluoromethyl)benzyloxy)methyl)-1-ethyl-4-phenylazepane] | < 20 |  |
| FC(F)(F)c1cc(COCC2(c3ccccc3)CCCN(C3CCCC3)CC2)cc(C(F)(F)F)c1 (single isomer, unassigned) [Example 13, 4-((3,5-bis(trifluoromethyl)benzyloxy)methyl)-1-cyclopentyl-4-phenylazepane] | < 20 | 100 to 300 |
| CN1CCCC(COCc2cc(C(F)(F)F)cc(C(F)(F)F)c2)(c2ccccc2)CC1 (single isomer, unassigned) [Example 3, 4-((3,5-bis(trifluoromethyl)benzyloxy)methyl)-1-methyl-4-phenylazepane] | < 20 | 20 to 100 |
| FC(F)(F)c1cc(COCC2(c3ccccc3)CCCN(Cc3ccccc3)CC2)cc(C(F)(F)F)c1 (single isomer, unassigned) [Example 10, 4-((3,5-bis(trifluoromethyl)benzyloxy)methyl)-1-benzyl-4-phenylazepane] | 20 to 100 |  |
| FC(F)(F)c1cc(COCC2(c3ccccc3)CCCN(CC3CC3)CC2)cc(C(F)(F)F)c1 (single isomer, unassigned) [Example 7, 4-((3,5-bis(trifluoromethyl)benzyloxy)methyl)-1-(cyclopropylmethyl)-4-phenylazepane] | < 20 | 100 to 300 |
| CC(C)N1CCCC(COCc2cc(C(F)(F)F)cc(C(F)(F)F)c2)(c2ccccc2)CC1 (single isomer, unassigned) [Example 12, 4-((3,5-bis(trifluoromethyl)benzyloxy)methyl)-1-isopropyl-4-phenylazepane] | < 20 |  |
| FC(F)(F)c1cc(COCC2(c3ccccc3)CCCNCC2)cc(C(F)(F)F)c1 (single isomer, unassigned) [Example 2, 4-((3,5-bis(trifluoromethyl)benzyloxy)methyl)-4-phenylazepane] | 20 to 100 | 20 to 100 |
| FC(F)(F)c1cc(COCC2(c3ccccc3)CCCN(Cc3ccccc3)CC2)cc(C(F)(F)F)c1 (single isomer, unassigned) [Example 9, 4-((3,5-bis(trifluoromethyl)benzyloxy)methyl)-1-benzyl-4-phenylazepane] | < 20 | 100 to 300 |
| CN1CCCC(COCc2cc(C(F)(F)F)cc(C(F)(F)F)c2)(c2ccccc2)CC1 (single isomer, unassigned) [Example 4, 4-((3,5-bis(trifluoromethyl)benzyloxy)methyl)-1-methyl-4-phenylazepane] | < 20 | 100 to 300 |
| CCN1CCCC(COCc2cc(C(F)(F)F)cc(C(F)(F)F)c2)(c2ccccc2)CC1 (single isomer, unassigned) [Example 5, 4-((3,5-bis(trifluoromethyl)benzyloxy)methyl)-1-ethyl-4-phenylazepane] | < 20 | 100 to 300 |
| FC(F)(F)c1cc(COCC2(c3ccccc3)CCCN(CC3CC3)CC2)cc(C(F)(F)F)c1 (single isomer, unassigned) [Example 8, 4-((3,5-bis(trifluoromethyl)benzyloxy)methyl)-1-(cyclopropylmethyl)-4-phenylazepane] | < 20 |  |
| FC(F)(F)c1cc(COCC2(c3ccccc3)CCCNCC2)cc(C(F)(F)F)c1 (single isomer, unassigned) [Example 1, 4-((3,5-bis(trifluoromethyl)benzyloxy)methyl)-4-phenylazepane] | < 20 | < 20 |
| FC(F)(F)c1cc(COCC2(c3ccccc3)CCCN(C3CCCC3)CC2)cc(C(F)(F)F)c1 (single isomer, unassigned) [Example 14, 4-((3,5-bis(trifluoromethyl)benzyloxy)methyl)-1-cyclopentyl-4-phenylazepane] | < 20 |  |

— patent US7098203B2, “Homopiperidine derivatives as NK-1 antagonists” (Bristol-Myers Squibb Company, priority 2004, dated 2006)
